Measurements: patent US4398937A, “Selective algaecides for control of cyanochloronta” (The University of Southern Mississippi, priority 1981, dated 1983)
Where two headings read alike, the source gives them in different places.

Legend:
Assay type in all cases: cell-based
Anabaena flos-aquae [1] = experiment: Test tube culture inhibition of Anabaena flos-aquae, algal units/ml
Method: (§1) The algae used in this particular study were Chlamydomonas sp., Chlorella vulgaris, Anabaena sp., and Anabaena flos-aquae. Cultures of these algae were obtained, subcultured, and aqueous stocks of algae in 400 ml BBM were prepared and were used in log phase growth to innoculate test cultures.
(§2) The fatty acids which were tested as algal inhibitors were 9, 10-dihydroxystearic acid, linoleic acid, dodecanoic acid, and ricinoleic acid.
(§3) The test procedure involved placing 15 ml of BBM into 25 ml test tubes and innoculating them with 0.2 ml of algal stock solution. Twenty test tubes were innoculated with each algae. Four of these cultures were used with each concentration of each of the fatty acids. Four tubes from each set served as controls. Four concentrations of the fatty acids were used for each alga. The concentrations studied were 0.5 PPM, 1.0 PPM, 5.0 PPM, and 10.0 PPM.
(§4) Algal cultures were incubated under constant light of about 200 foot-candles and at a temperature of 68° F. Bold's Basal Medium (BBM), a modification of Bristol's solution was the medium in which all the cultures were grown. Bold's Basal Medium was prepared as follows:
(§5) Concentrations of fatty acids and the amount of stock solution used to prepare them were as follows:
(§6) Each test tube contained 15 ml sterile BBM. To this was added an aliquot of 0.2 of algal stock solution. Then the appropriate aliquots of warm acid stock solution were added to the appropriate number of culture tubes. These cultures were then incubated 5 days and at that point were counted. The same cultures were also counted after a 12 day growth period.
(§7) Stock solutions of the fatty acids to be tested as algal inhibitors were made from a stock solution of 5% sodium bicarbonate in glass-distilled water. The 5% sodium bicarbonate stock solution was made by dissolving 150 grams of sodium bicarbonate in 3000 ml of glass-distilled water. To insure complete dissolution, the solution was heated and stirred on a magnetic stirrer hot plate. The warm solution was used in preparing the fatty acid stock solutions.
(§8) Quanitative phytoplankton values were determined using the random field method. Filaments, colonies, and aggregations of cells were recorded as algal units. Each unit consisted of approximately 6 cells. Unicellular algae were counted as separate units. Algal counts were made from each of three duplicate cultures. One ml of the algal sample was placed in a Sedgwick-Rafter counting chamber, which is 50 mm long by 20 mm, wide by 1 mm deep. A Wild Heerbrugg, compound microscope with a Whipple grid eyepiece was used to determine quantitative algae values.
(§9) One ml of the algal solution was placed in the counting chamber, and two drops of methyl cellulose were added to minimize the movement of Chlamydomonas sp. Ten random fields were counted and all organisms within the Whipple grid field were enumerated.
(§10) The following formula used to calculate the numbers per milliliter from the field counts: [formula] where: C=number of organisms counted,
(§11) The area of the Whipple grid used was 0.46 mm^2, and the depth of a field was 1 mm. Results of the counts were reported as algal units/ml.

Chlamydomonas sp. = experiment: Test tube culture inhibition of Chlamydomonas sp., algal units/ml
Method: as §1, §2, §3, §4, §5, §6, §7, §8, §9, §10, §11

Anabaena flos-aquae [2] = experiment: 300 ml batch culture of Anabaena flos-aquae, visual
Method: (§12) As a means of visually confirming some of the results batch cultures of 300 ml. of Anabaena flos-aquae and Chlorella vulgaris were grown.

Chlorella vulgaris [3] = experiment: Test tube culture inhibition of Chlorella vulgaris, algal units/ml
Method: as §1, §2, §3, §4, §5, §6, §7, §8, §9, §10, §11

Anabaena sp. = experiment: Test tube culture inhibition of Anabaena sp., algal units/ml
Method: as §1, §2, §3, §4, §5, §6, §7, §8, §9, §10, §11

Chlorella vulgaris [4] = experiment: 300 ml batch culture of Chlorella vulgaris, visual; settings: batch cultures, all concentrations
Method: as §12

[5] = 5 and 12 days, all concentrations

Q: With `CCCCCC[C@@H](O)C/C=C\CCCCCCCC(=O)O` [Ricinoleic Acid, ricinoleic acid] as the compound, how does the “effect on algal growth” value (Anabaena flos-aquae [1]; [5]) read?
A: inhibitory effect

Q: And the Algal units/ml (Anabaena flos-aquae [1]; 5 days, 0.5 PPM)?
A: 435 units/ml

Q: And the Algal units/ml (Anabaena flos-aquae [1]; 5 days, 1.0 PPM)?
A: 1087 units/ml

Q: What about the Algal units/ml (Anabaena flos-aquae [1]; 5 days, 5.0 PPM) of the same compound?
A: 1087 units/ml

Q: What about the Algal units/ml (Anabaena flos-aquae [1]; 5 days, 10.0 PPM) of the same compound?
A: 652 units/ml

Q: What about the Algal units/ml (Anabaena flos-aquae [1]; 12 days, 0.5 PPM) of the same compound?
A: 10217 units/ml

Q: What about the Algal units/ml (Anabaena flos-aquae [1]; 12 days, 1.0 PPM) of the same compound?
A: 6522 units/ml

Q: What about the Algal units/ml (Anabaena flos-aquae [1]; 12 days, 5.0 PPM) of the same compound?
A: 4783 units/ml

Q: What about the “reduction in number of algal units/ml vs control” value (Anabaena flos-aquae [1]; 12 days, 10 PPM) of the same compound?
A: 38,261 algal units/ml

Q: What about the Algal units/ml (Anabaena flos-aquae [1]; 12 days, 10.0 PPM) of the same compound?
A: 3043 units/ml

Q: What about the inhibition of growth at 10 ppm (Anabaena flos-aquae [1]; Dolichospermum flos-aquae, 288 h, 12 days, 10 PPM, read-out: reduction in number of algal units/ml, % of the control) of the same compound?
A: 92.6%

Q: And the “effect on algal growth” value (Chlamydomonas sp.; [5])?
A: stimulatory effect

Q: What about the “concentration of maximum stimulatory effect” value (Chlamydomonas sp.; 5 days) of the same compound?
A: 5.0 PPM

Q: What about the Algal units/ml (Chlamydomonas sp.; 5 days, 0.5 PPM) of the same compound?
A: 18696 units/ml

Q: And the Algal units/ml (Chlamydomonas sp.; 5 days, 1.0 PPM)?
A: 29130 units/ml

Q: What about the Algal units/ml (Chlamydomonas sp.; 5 days, 5.0 PPM) of the same compound?
A: 32609 units/ml

Q: What about the Algal units/ml (Chlamydomonas sp.; 5 days, 10.0 PPM) of the same compound?
A: 13043 units/ml

Q: What about the “concentration of maximum stimulatory effect” value (Chlamydomonas sp.; 12 days) of the same compound?
A: 0.5 PPM

Q: And the Algal units/ml (Chlamydomonas sp.; 12 days, 0.5 PPM)?
A: 65217 units/ml

Q: And the Algal units/ml (Chlamydomonas sp.; 12 days, 1.0 PPM)?
A: 63043 units/ml

Q: What about the Algal units/ml (Chlamydomonas sp.; 12 days, 5.0 PPM) of the same compound?
A: 52174 units/ml

Q: And the Algal units/ml (Chlamydomonas sp.; 12 days, 10.0 PPM)?
A: 54348 units/ml

Q: What about the activation at 5 ppm (Chlamydomonas sp.; Chlamydomonas, 120 h, read-out: increase in number of algal units/ml of the control) of the same compound?
A: 183%

Q: What about the “inhibition (visual)” value (Anabaena flos-aquae [2]; 1 PPM) of the same compound?
A: slightly inhibited

Q: And the “inhibition (visual)” value (Anabaena flos-aquae [2]; 10 PPM)?
A: greatly inhibited

Q: And the Algal units/ml (Chlorella vulgaris [3]; 5 days, 0.5 PPM)?
A: 20217 units/ml

Q: What about the Algal units/ml (Chlorella vulgaris [3]; 5 days, 1.0 PPM) of the same compound?
A: 21739 units/ml

Q: What about the Algal units/ml (Chlorella vulgaris [3]; 5 days, 5.0 PPM) of the same compound?
A: 22391 units/ml

Q: And the Algal units/ml (Chlorella vulgaris [3]; 5 days, 10.0 PPM)?
A: 20870 units/ml

Q: And the Algal units/ml (Chlorella vulgaris [3]; 12 days, 0.5 PPM)?
A: 217391 units/ml

Q: And the Algal units/ml (Chlorella vulgaris [3]; 12 days, 1.0 PPM)?
A: 326087 units/ml

Q: What about the Algal units/ml (Chlorella vulgaris [3]; 12 days, 5.0 PPM) of the same compound?
A: 326087 units/ml

Q: What about the Algal units/ml (Chlorella vulgaris [3]; 12 days, 10.0 PPM) of the same compound?
A: 326087 units/ml

Q: And the activation at 0.5 ppm (Chlorella vulgaris [3]; Chlorella vulgaris, 120 h, 5 days, 0.5 PPM, read-out: more algal units/ml than in the control)?
A: 86%

Q: What about the activation at 10 ppm (Chlorella vulgaris [3]; Chlorella vulgaris, 288 h, 12 days, 10 PPM, read-out: more algal units/ml than in the control) of the same compound?
A: 50%

Q: What about the “effect on algal growth” value (Chlorella vulgaris [3]; all concentrations at 5 days, 5 and 10 PPM at 12 days) of the same compound?
A: stimulatory effect

Q: And the inhibition of growth at 5 ppm (Anabaena sp.; 120 h, 5 days, 5.0 PPM, read-out: reduction of algal units/ml, % of the control)?
A: 15.6%

Q: And the inhibition of growth at 10 ppm (Anabaena sp.; 120 h, 5 days, 10.0 PPM, read-out: reduction of algal units/ml, % of the control)?
A: 30.6%

Q: And the Algal units/ml (Anabaena sp.; 5 days, 0.5 PPM)?
A: 36522 units/ml

Q: And the Algal units/ml (Anabaena sp.; 5 days, 1.0 PPM)?
A: 35652 units/ml

Q: What about the Algal units/ml (Anabaena sp.; 5 days, 5.0 PPM) of the same compound?
A: 26957 units/ml

Q: And the Algal units/ml (Anabaena sp.; 5 days, 10.0 PPM)?
A: 22174 units/ml

Q: And the “reduction in algal units/ml vs control” value (Anabaena sp.; 5 days, 10.0 PPM)?
A: 9,783 algal units/ml

Q: What about the inhibition of growth at 0.5 ppm (Anabaena sp.; 288 h, 12 days, 0.5 PPM (so in the source), read-out: reduction of algal units/ml, % of the control) of the same compound?
A: 59.7%

Q: And the inhibition of growth at 10 ppm (Anabaena sp.; 288 h, 12 days, 10 PPM, read-out: reduction of algal units/ml, % of the control)?
A: 65.2%

Q: What about the Algal units/ml (Anabaena sp.; 12 days, 0.5 PPM) of the same compound?
A: 97391 units/ml

Q: And the “reduction of algal units/ml vs control” value (Anabaena sp.; 12 days, 0.5 PPM (so in the source))?
A: 70,434 algal units/ml

Q: And the Algal units/ml (Anabaena sp.; 12 days, 1.0 PPM)?
A: 81957 units/ml

Q: What about the Algal units/ml (Anabaena sp.; 12 days, 5.0 PPM) of the same compound?
A: 47609 units/ml

Q: And the “reduction of algal units/ml vs control” value (Anabaena sp.; 12 days, 10 PPM)?
A: 76,956 algal units/ml

Q: What about the Algal units/ml (Anabaena sp.; 12 days, 10.0 PPM) of the same compound?
A: 41087 units/ml

Q: And the “effect on growth” value (Anabaena sp.; concentrations of 1.0 PPM or less)?
A: stimulatory effect

Q: And the “inhibition (visual)” value (Chlorella vulgaris [4])?
A: no inhibition was noticed
